Laboratory results from patent US8637038B2, “Methods for inhibiting allograft rejection” (Rigel Pharmaceuticals, Inc., priority 2011, dated 2014).
Like-named read-outs stand apart in the source and are kept apart here.

Key:
[1] = In vivo pharmacokinetics, plasma levels by LC/MS/MS; parameters: species or system Lewis rats; conditions: for time of peak plasma level after administration: male Lewis rats
Protocol: Male Lewis rats were orally administered at dosages of Compound I HD (60 mg/kg/BID); Compound I LD (15 mg/kg/BID); Compound III HD (20 mg/kg/BID), and Compound III LD (5 mg/kg/BID), respectively. Plasma levels of drugs were quantified 0.5, 1, 1.5, 2, 3, 4, 6, 8, and 10 hours after administration. Plasma levels of Compound I and Compound III were quantified by LC/MS/MS.
Pharmacokinetics were performed in male Lewis rats. Plasma levels were measured within a 10 hour period. Resulting plasma concentrations of Compound I HD (60 mg/kg BID), Compound I LD (15 mg/kg BID), Compound III HD (20 mg/kg BID), and Compound III LD (5 mg/kg BID) are depicted in FIG. 1. Compound I HD and Compound I LD plasma levels peaked 1.5-2 hours after administration. Compound III HD plasma levels peaked after 3-3.5 hours and Compound III LD levels 2 hours after administration.

[2] = test system: Syk, Lck, ZAP-70, VEGFR, INSR, EGFR and serine threonine kinases; assay: Panel of cell-based assays against non-JAK kinase targets
Protocol: The erythropoietin (EPO)-dependent survival of cultured human erythroid progenitor cells (CHEPs) was determined using CellTiter-Glo® Luminescent Cell Viability Assay (Promega). Human primary T cell activation was assessed by measuring IL-2 production by ELISA (R&D Systems, Minneapolis, Minn., USA) following plate-bound anti-CD3 and anti-CD28 stimulation (Anti-Human CD3; BD Biosciences; Anti-Human CD28; Immunotech; Prague, Czech Republic). The enzymatic activity of tryptase released by human cultured mast cells (CHMCs) upon stimulation with IgE was quantified by cleavage of the synthetic fluorescent peptide substrate Z-Ala-Lys-Arg-7-amino-4-methylcoumarin (MP Biomedicals, Solon, Ohio, USA) in tryptase buffer. B-cell receptor-dependent Erk phosphorylation was measured in Ramos cells by intracellular FACS (anti-pT202/pY204-ERK1/2-AlexaFluor488; BD Biosciences). […]
Growth factor-dependent protein phosphorylation was detected in HeLa cells by staining permeabilized cells with phospho-specific antibodies and quantified by chemiluminescence (Luminator, Wallac Multilabel Counter; Perkin Elmer). […] Human umbilical vein endothelial cells (HUVECs) were stimulated with VEGF and VEGFR2 phosphorylation was assessed by ELISA (100 ng/ml VEGF165, R&D Systems; Rabbit anti-phospho-VEGFR2 mAb, Cell Signaling Technology). […]

Lck/AZP70 = assay: Anti-CD3/CD28 T cell IL-2 production; type: cell-based; conditions: Homo sapiens
Protocol: The erythropoietin (EPO)-dependent survival of cultured human erythroid progenitor cells (CHEPs) was determined using CellTiter-Glo® Luminescent Cell Viability Assay (Promega). Human primary T cell activation was assessed by measuring IL-2 production by ELISA (R&D Systems, Minneapolis, Minn., USA) following plate-bound anti-CD3 and anti-CD28 stimulation (Anti-Human CD3; BD Biosciences; Anti-Human CD28; Immunotech; Prague, Czech Republic). The enzymatic activity of tryptase released by human cultured mast cells (CHMCs) upon stimulation with IgE was quantified by cleavage of the synthetic fluorescent peptide substrate Z-Ala-Lys-Arg-7-amino-4-methylcoumarin (MP Biomedicals, Solon, Ohio, USA) in tryptase buffer. B-cell receptor-dependent Erk phosphorylation was measured in Ramos cells by intracellular FACS (anti-pT202/pY204-ERK1/2-AlexaFluor488; BD Biosciences). Cell proliferation assays were performed using A549 epithelial cells and H1299 lung carcinoma cells using nuclear staining to measure cell numbers (4′6-diamidino-2-phenylindole, dihydrochloride (DAPI; Invitrogen, Darmstadt, Germany)).

JAK1/2/Tyk2 = assay: IL-6 whole blood lymphocytes phospho-STAT3; type: cell-based; conditions: Lymphocyte, read-out: IL-6 whole blood lymphocytes phospho-STAT3 EC50
Protocol: The activity of Compound III and Compound I was assessed in a panel of cell-based assays. Compound III and Compound I are selective inhibitors of JAK1/3-dependent signaling. Data for a non-selective JAK inhibitor (Compound IV) is shown for reference. Mixed lymphocyte reactions (MLRs) were performed by incubating freshly prepared naive human peripheral blood lymphocytes from one donor with CD80+/CD86+ mature Dendritic Cells derived from a different donor for 5 days. The percentage of CD3+/CD71+ (anti-CD3-APC, Clone HIT3a, anti-CD 71-FITC, Clone M-A712; BD Biosciences, San Jose, Calif.) proliferating cells was assessed by fluorescence-activated cell sorting (FACS; BD Bioscience). Interleukin-2 (IL-2)-dependent human primary T cell proliferation was assessed using CellTiter-Glo® Luminescent Cell Viability Assay (Promega, Madison, Wis.). STAT phosphorylation induced by different cytokines in human primary T cells was measured by intracellular FACS analysis (anti-pY694-STAT5 AlexaFluor488, anti-pY701-STAT1 AlexaFluor488, and anti-pY693-STAT4 AlexaFluor488; BD Biosciences). […] Interferon-γ (IFN-γ) signaling was assessed in the U937 monocytic cell line by measuring ICAM-1 surface expression by FACS (ICAM-1-APC, BD Bioscience).

JAK1/3 = assay: IL-2 T cell phospho-STAT5; type: cell-based; conditions: Homo sapiens
Protocol: The activity of Compound III and Compound I was assessed in a panel of cell-based assays. Compound III and Compound I are selective inhibitors of JAK1/3-dependent signaling. Data for a non-selective JAK inhibitor (Compound IV) is shown for reference. Mixed lymphocyte reactions (MLRs) were performed by incubating freshly prepared naive human peripheral blood lymphocytes from one donor with CD80+/CD86+ mature Dendritic Cells derived from a different donor for 5 days. The percentage of CD3+/CD71+ (anti-CD3-APC, Clone HIT3a, anti-CD 71-FITC, Clone M-A712; BD Biosciences, San Jose, Calif.) proliferating cells was assessed by fluorescence-activated cell sorting (FACS; BD Bioscience). Interleukin-2 (IL-2)-dependent human primary T cell proliferation was assessed using CellTiter-Glo® Luminescent Cell Viability Assay (Promega, Madison, Wis.). STAT phosphorylation induced by different cytokines in human primary T cells was measured by intracellular FACS analysis (anti-pY694-STAT5 AlexaFluor488, anti-pY701-STAT1 AlexaFluor488, and anti-pY693-STAT4 AlexaFluor488; BD Biosciences). STAT phosphorylation induced by different cytokines was performed in whole blood after red blood cell lysis (Lyse/Fix buffer, BD Biosciences) and methanol permeabilization. Interferon-γ (IFN-γ) signaling was assessed in the U937 monocytic cell line by measuring ICAM-1 surface expression by FACS (ICAM-1-APC, BD Bioscience).

[3] = HD oral: Compound I 60 mg/kg BID, Compound III 20 mg/kg BID
[4] = LD oral: Compound I 15 mg/kg BID, Compound III 5 mg/kg BID
[5] = read-out: EC50, JAK1/3-dependent Stat5 phosphorylation in response to IL-2

Structure (SMILES)	time of peak plasma level after administration [1, 3] [h]	time of peak plasma level after administration [1, 4] [h]	inhibition of other (non-JAK) kinase targets in cells [2]	EC50 (Lck/AZP70; upstream kinases Lck/AZP70, read-out: Anti-CD3/CD28 T cell IL-2 production EC50) [µM]	EC50 (JAK1/2/Tyk2; whole blood, JAK1/2/Tyk2) [µM]	EC50 (JAK1/3; [5]) [µM]	EC50 (JAK1/3; upstream kinases JAK1/3, read-out: IL-2 T cell phospho-STAT5 EC50) [µM]	AUC of HD group relative to LD group ([1]; Compound I 60 vs 15 mg/kg BID, Compound III 20 vs 5 mg/kg BID, 10 hour period) [fold]	EC50 (Lck/AZP70; read-out: Anti-CD3/CD28 T cell IL-2 production EC50) [µM]	EC50 (JAK1/2/Tyk2) [µM]	EC50 (JAK1/3; read-out: IL-2 T cell phospho-STAT5 EC50) [µM]
COc1cc(Nc2ncc(C)c(Nc3ccc4oc(=O)[nH]c4c3)n2)cc(C)c1F [Compound I, 5-(2-(4-fluoro-3-methoxy-5-methylphenylamino)-5-methylpyrimidin-4-ylamino)benzo[d]oxazol-2(3H)-one]	1.5 to 2	1.5 to 2	very limited inhibition	2.87 ± 0.118	3.83 ± 1.52	0.021	0.021 ± 0.009				
COc1cc(Nc2ncc(C)c(Nc3ccc4oc(=O)[nH]c4c3)n2)cc(C)c1C [Compound III, 5-(2-(3-methoxy-4,5-dimethylphenylamino)-5-methylpyrimidin-4-ylamino)benzol[d]oxazol-2-(3H)-one]	3 to 3.5	2	very limited inhibition			0.035		> 22	19.7 ± 2.9	6.69 ± 1.61	0.035 ± 0.015
